Assay results taken from US20110112148A1, “INDOLINE COMPOUNDS” (Ferrer Internacional S.A., priority 2007, published 2011).

Target: T1, recombinant human MT1 receptor (Homo sapiens, UniProt P48039)
T1 construct: expressed in transfected cells; host or cells: unnamed cell line co-expressing mitochondrial apoaequorin and the Galpha16 subunit
Assay: Agonist activity on MT1 receptors (aequorin luminescence, Gα16 co-expressing cell line)
Type: cell-based
Conditions: percentage activity with respect to the reference agonist at its EC100; for MT1 agonism, 1 nm: compound at 1 nm; for MT1 agonism, 100 nm: compound at 100 nm
Description: Determination of the Agonist Activity on MT1 Receptors
In order to screen compounds for the MT1 receptor a cell line is used that is characterised by stable overexpression of the recombinant human MT1 receptor in a cell line that in turn co-expresses mitochondrial apoaequorin and the Gα16 subunit.
The Ga16 subunit belongs to the G protein family, formed by GPCR, wherein the transduction of intracellular signals occurs via phospholipase (PLC). PLC activation produces an increase in inositol-triphosphate levels that leads to an increase in intracellular calcium. Ga16 overexpression thus allows an increase in intracellular calcium levels that is independent and compatible with the study receptor's own signal transduction pathway.
Following its binding to calcium, the aequorin oxidises coelenterazine to coelenteramide, a reaction that releases CO2 and light.
The trial protocol for the screening of possible agonists consists in collecting the cells and keeping them in suspension overnight in the presence of coelenterazine in order to reconstitute aequorin. On the following day the cells are injected on a plate where the compounds to be screened are diluted, and the luminescence released is read immediately. When wishing to study the possible antagonism of the same compounds, the reference agonist compound is added in the same well after 15-30 min from the first injection and the luminescence released is assessed.
Agonist activity is calculated as percentage activity with respect to the reference agonist at the concentration corresponding to its EC100. Antagonist activity is expressed as percentage inhibition over the reference agonist activity at the concentration corresponding to its EC80.

T1 sequence (P48039 whole entry): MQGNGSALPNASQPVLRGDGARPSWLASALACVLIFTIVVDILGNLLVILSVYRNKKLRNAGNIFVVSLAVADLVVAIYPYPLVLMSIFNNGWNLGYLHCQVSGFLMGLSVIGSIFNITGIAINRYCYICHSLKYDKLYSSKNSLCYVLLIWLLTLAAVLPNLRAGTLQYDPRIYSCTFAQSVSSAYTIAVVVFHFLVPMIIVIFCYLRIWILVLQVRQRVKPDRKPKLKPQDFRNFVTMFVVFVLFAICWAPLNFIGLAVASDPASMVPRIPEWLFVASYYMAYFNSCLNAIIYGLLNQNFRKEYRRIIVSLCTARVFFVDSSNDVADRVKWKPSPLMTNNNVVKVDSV

CC(=O)NCCN1CCc2ccc3c(c21)CCO3 [N-[2-(2,3,7,8-tetrahydro-1H-furo[2,3-g]indol-1-yl)-ethyl]-acetamide, reference compound]
MT1 agonism, 1 nm: 13.9% | MT1 agonism, 100 nm: 76.6%

COc1ccc2c(c1)N(CCNC(C)=O)CC2 [Example 1, N-[2-(6-methoxy-2,3-dihydro-indol-1-yl)-ethyl]-acetamide]
MT1 agonism, 1 nm: 13.1% | MT1 agonism, 100 nm: 92%

COc1ccc2c(c1)N(CCNC(=O)C(F)(F)F)CC2 [Example 4, 2,2,2-trifluoro-N-[2-(6-methoxy-2,3-dihydro-indol-1-yl)-ethyl]-acetamide]
MT1 agonism, 1 nm: 14.6% | MT1 agonism, 100 nm: 94%

COc1ccc2c(c1)N(C(C)CNC(C)=O)CC2 (centres unmarked) [Example 5, N-[2-(6-methoxy-2,3-dihydro-indol-1-yl)-propyl]-acetamide]
MT1 agonism, 1 nm: 11.5% | MT1 agonism, 100 nm: 89.8%
